Here are results for 3 substances from paper PMC4633044, “Quorum Sensing Peptides Selectively Penetrate the Blood-Brain Barrier” (PLoS ONE, 2015).

Data set [1] has as its system mouse brain capillaries / parenchyma. Particulars: in vivo, iv.
The test system of data set [2] is mouse brain (blood-brain barrier). Particulars: general value for the positive control; cited from earlier work. From the text: To evaluate these transport results, we compared them with the net clearances of oth ...
For data set [3] the following is noted: mouse, in vivo, iv.
Data set [4] relates to mouse brain (blood-brain barrier). Particulars: in vivo; for Kin / Kin (text): iv.
Data set [5] has the same test system. As to conditions: in vivo.
The conditions of data set [6]: 0, 30, 120 min.

In data set [1], dermorphin [reference compound] showed a Capillary fraction of 37.0% and a Parenchymal fraction of 63.0%. Besides, the “clearance as % of the plasma flow to the brain” value in data set [2] is on record as “about 0.05%”. Further, in the data set on blood-brain barrier, the BBB influx classification entry is on record as “low influx”. Besides, the “Tissue distribution (in words)” value in data set [3] is “mainly distributed in the duodenum, followed by the liver”. Further, in data set [4], the “Brain distribution volume, Vg” value worked out at 23.05 ± 1.18 µL/g; the Kin is 5.26 ± 0.93 µL/g/min; the “Kin (text)” value is given as 5.26 μl/(gxmin). The same substance gave a kout in data set [5] of -0.11 ± 0.02 min⁻¹.

On to “GLWEDLLYNINRYAHYIT [BIP-2, bacteriocin-inducing peptide 2]”, for which the “half-life in human plasma” value in data set [6] stood at 5.345 h. In addition, in data set [1], the Capillary fraction turned out to be 23.1%; the “Capillary fraction, first animal (Fig 3)” value was determined as 23.14%; the “Capillary fraction, second animal (Fig 3)” value stood at 23.04%; the “Parenchyma fraction, first animal (Fig 3)” value is listed as 76.86%. In addition, in data set [1], the “Parenchyma fraction, second animal (Fig 3)” value is 76.96% and the Parenchymal fraction came to 76.9%. The BBB influx classification entry in the data set with blood-brain barrier is “low influx”. Also, the “Tissue distribution (in words)” value in data set [3] is listed as “strongly accumulated in the liver”. Also, in data set [4], the “Brain distribution volume, Vg” value was 18.22 ± 1.43 µL/g; the Kin was determined as 2.68 ± 0.66 µL/g/min; the “Kin (text)” value was found to be 2.68 µL/g/min. In data set [5], the kout was -0.06 ± 0.02 min⁻¹ and the “kout (text)” value was -0.06 ± 0.02.

Regarding SYPGWSW [PhrCACET1], in data set [1], the Capillary fraction is given as 15.1%; the “Capillary fraction, first animal (Fig 3)” value amounted to 13.97%; the “Capillary fraction, second animal (Fig 3)” value stood at 16.20%; the “Parenchyma fraction, first animal (Fig 3)” value was determined as 86.03%. Further, in data set [1], the “Parenchyma fraction, second animal (Fig 3)” value is listed as 83.80% and the Parenchymal fraction is 84.9%. Moreover, in the data set on blood-brain barrier, the BBB influx classification entry is “very high influx”. In data set [4], the “Brain distribution volume, Vg” value was determined as 54.90 ± 5.75 µL/g; the Kin was found to be 20.87 ± 7.97 µL/g/min; the “Kin (text)” value came out at 20.87 µL/g/min. Besides, in data set [5], the kout is -0.02 ± 0.04 min⁻¹ and the “kout (text)” value was -0.02 ± 0.03.
